Patent US11008293B2, “5-carboxamide-2-thiobarbituric acids and use thereof as medicaments” (FONDAZIONE ISTITUTO ITALIANO DI TECNOLOGIA, priority 2017, dated 2021)

Assays:
Type in all cases: cell-based
HeLa = assay: Antiproliferative activity on HeLa cancer cells; conditions: Homo sapiens
MCF7 = assay: Antiproliferative activity on MCF7 cancer cells; conditions: Homo sapiens
A549 = assay: Antiproliferative activity on A549 cancer cells; conditions: Homo sapiens
DU145 = assay: Antiproliferative activity on DU145 cancer cells; conditions: Homo sapiens, DU-145

SMILES	IC50 (HeLa) [µM]	IC50 (MCF7) [µM]	IC50 (A549) [µM]	IC50 (DU145) [µM]
COc1cc(NC(=O)c2c(O)n(-c3ccccc3)c(=S)n(-c3ccccc3)c2=O)cc(OC)c1O	18.1 ± 0.8	53.5 ± 1.9	17.5 ± 1.1	26.7 ± 0.1
O=C(Nc1ccc(O)cc1)c1c(O)n(-c2ccccc2)c(=S)n(-c2ccccc2)c1=O	42.9 ± 6.1	66.1 ± 7.5	37.1 ± 3.7	42.5 ± 7.7
COc1cccc(NC(=O)c2c(O)n(-c3ccccc3)c(=S)n(-c3ccccc3)c2=O)c1	8.5 ± 0.5	14 ± 0.9	6.9 ± 0.2	12.5 ± 1.5
O=C(Nc1cccc(O)c1)c1c(O)n(-c2ccccc2)c(=S)n(-c2ccccc2)c1=O	39.1 ± 0.7	94.2 ± 3.1	59.4 ± 6.1	49.6 ± 2.7
